Patent US10669334B2, “Treatment for Dupuytren's disease” (Oxford University Innovation Limited, priority 2010, dated 2020)

Tests used:
palmar fibroblasts = experiment: Culture force monitor: isometric force contraction of collagen gels seeded with palmar fibroblasts; type: cell-based, human; conditions: 24 h; for isometric force contraction of palmar fibroblasts: 1 ng/ml, versus PS alone, FIG. 12 / FIG. 22
Source text: The culture force monitor (CFM) utilised and culture conditions are shown in FIGS. 3A to 3E: (A) Rectangular seeded collagen gels were cast and floated in medium, tethered between two flotation bars one of which is held stationary whilst the other is attached to a force transducer. (B) Cell-generated tensional forces in the collagen gel are detected by the force transducer, and live data are logged every 15 seconds providing a continuous output of force (dynes, […]) generated. (C) After 24 hour contraction, gels are harvested and processed for α-SMA mRNA, protein and immunofluorescence. (D) Cells were routinely seeded in gels with a high aspect-ratio collagen lattice, although low aspect-ratio lattices (E) were also used in experiments to compare effects of less strain on cell contractility. […]
Collagen gels seeded with palmar fibroblasts were cultured for 24 h with supernatants from AGE-(100 μg/ml) stimulated monocytes (M) in the absence or presence of anti TNF-α (10 μg/ml) and isometric force contraction quantified. Experiments were performed in duplicate. […]

human monocytes = experiment: TNF-α production by human monocytes (ELISA); type: cell-based
Description: LPS, a pathogen associated molecular pattern (PAMP) is shown as positive control.
The known receptors for S100A8 are the receptor for advanced glycation end products (RAGE) and the Toll-like receptors 2 and 4. Human monocytes at 1×10^5/ml were incubated in 10% FCS with human S100 A8 at 0.5 with the addition of either antibody to TLR4, TLR2 or isotype controls (not shown), or soluble RAGE (sRAGE)) over 14 hours. TNF-α levels were determined by ELISA.
It is more difficult to show in vitro that HMGB1 also acts on monocytes to lead to pro-inflammatory cytokine release. […] Our experiment, the results of which are shown in FIG. 18, involved human monocytes at 1×10^5/ml incubated in 10% FCS with HMGB1 or LPS alone or together at concentrations shown over 14 hours. TNF-α levels were determined by ELISA.

[1] = tested on: non-palmar dermal fibroblasts; experiment: Culture force monitor: contraction rate of non-palmar dermal fibroblasts; type: cell-based, human; conditions: 1 ng/ml; 24 h; one patient; FIG. 22
Source text: The culture force monitor (CFM) utilised and culture conditions are shown in FIGS. 3A to 3E: (A) Rectangular seeded collagen gels were cast and floated in medium, tethered between two flotation bars one of which is held stationary whilst the other is attached to a force transducer. (B) Cell-generated tensional forces in the collagen gel are detected by the force transducer, and live data are logged every 15 seconds providing a continuous output of force (dynes, […]) generated. (C) After 24 hour contraction, gels are harvested and processed for α-SMA mRNA, protein and immunofluorescence. (D) Cells were routinely seeded in gels with a high aspect-ratio collagen lattice, although low aspect-ratio lattices (E) were also used in experiments to compare effects of less strain on cell contractility.
We then compared the effect of TNF-α on the rate of contraction on palmar skin and non-palmar skin from a Dupuytren's patient. Collagen gels seeded with palmar fibroblasts were cultured for 24 h in the absence (PS or NPS alone) or presence of TNF-α (1 ng/ml). Data are shown as +/−SD from triplicate experiments using cells from 3 patients for palmar skin and one patient non-palmar skin (**p=0.0012, ns=not significant). […]

[2] = cited from earlier work
murine bone marrow cells = experiment: TNF-α production by murine bone marrow cells (wild type, TLR4-/-, MyD88-/-) by ELISA; type: cell-based; conditions: TLR4-/- and MyD88-/- mice, FIG. 17
Description: In FIG. 17, TNF-α produced by murine bone marrow cells of wild type, TLR4^−/− and MyD88^−/− mice on exposure to murine S100A8 were measured by ELISA.

[3] = exposure to alarmin over tested range, FIG. 15
[4] = phase III clinical trial, Hurst et al 2009

Question: Which results are given for AGEs?
Answer: palmar fibroblast contraction with supernatants from AGE-stimulated monocytes (palmar fibroblasts; AGE 100 μg/ml stimulated monocyte supernatant, absence or presence of anti TNF-α 10 μg/ml, FIG. 20): stimulated palmar fibroblast contraction in a TNF-α dependent manner; contractility of palmar dermal fibroblasts (palmar fibroblasts; AGEs-BSA 150 μg/ml, FIG. 14): not affected

Question: Which “TNF-α production by human monocytes” value (human monocytes; [3]) does the source give for S100A8: Alarmin (DAMP) protein, human here?
Answer: Its value is “produced TNF-α in a dose dependent manner”.

Question: And the “receptor mediating TNF-α production by human monocytes” value (human monocytes; human S100 A8 at 0.5 with antibody to TLR4, TLR2 or soluble RAGE, 14 hours, FIG. 16)?
Answer: Its value is “TLR-4 and not RAGE or TLR-2”.

Question: What about the “relative activity in TNF-α production by human monocytes” value (human monocytes; within the tested range, FIG. 15) of the same molecule?
Answer: Its value is “more active than S100A9 and S100A12”.

Question: With “TGF-β1: cytokine that leads to development of the myofibroblast phenotype” as the molecule, how does the palmar fibroblast contractility (palmar fibroblasts; 10 ng/ml, compared to untreated palmar fibroblasts, p=0.0001, FIG. 12) read?
Answer: Its palmar fibroblast contractility is “significant increased palmar fibroblast contractility”.

Question: And the “contractility of human palmar fibroblasts in collagen lattice under isometric conditions” value (palmar fibroblasts; TGF-β1, cells from 3 patients, FIG. 21)?
Answer: Its value is “enhanced contractility”.

Question: What does the source list for TNF-α?
Answer: isometric force contraction of palmar fibroblasts (palmar fibroblasts): significantly enhanced contraction; contraction rate of non-palmar dermal fibroblasts [1]: no change, or a slight reduction, in contraction rate

Question: With “bacterial collagenase: bacterial (Clostridial) collagenase for enzymatic fasciotomy, FDA approved as Xiaflex” as the molecule, how does the “recurrence rates in patients with PIPJ contractures” value ([2]; 2 years follow-up, Badalamente et al 2007) read?
Answer: Its value is 57%.

Question: What about the “MCPJ contractures effectively treated (to within 5° of full extension)” value [2, 4] of the same molecule?
Answer: Its value is 77%.

Question: What about the “PIPJ contractures effectively treated (to within 5° of full extension)” value [2, 4] of the same molecule?
Answer: The value was 40%.

B1: S100A9: Alarmin (DAMP) protein (protein, UniProt P06702 1-114, looked up)
Protein S100-A9: MTCKMSQLERNIETIINTFHQYSVKLGHPDTLNQGEFKELVRKDLQNFLKKENKNEKVIEHIMEDLDTNADKQLSFEEFIMLMARLTWASHEKMHEGDEGPGHHHKPGLGEGTP
Question: Which “TNF-α production by human monocytes” value (human monocytes; [3]) does the source give for B1 here?
Answer: Its value is “to some extent”.

B2: HMGB1: high mobility group box protein, an Alarmin (DAMP) (protein, UniProt P09429 1-215, looked up)
High mobility group protein B1: MGKGDPKKPRGKMSSYAFFVQTCREEHKKKHPDASVNFSEFSKKCSERWKTMSAKEKGKFEDMAKADKARYEREMKTYIPPKGETKKKFKDPNAPKRPPSAFFLFCSEYRPKIKGEHPGLSIGDVAKKLGEMWNNTAADDKQPYEKKAAKLKEKYEKDIAAYRAKGKPDAAKKGVVKAEKSKKKKEEEEDEEDEEDEEEEEDEEDEDEEEDDDDE
Question: For B2, which “isometric force contraction of palmar fibroblasts” value (palmar fibroblasts) is on record?
Answer: Its value is “trend towards increased contraction resulting from HMGB1, this was not statistically significant”.

Question: And the “TNF-α production by human monocytes” value (human monocytes; HMGB1 alone, 14 hours, FIG. 18)?
Answer: The value was “does not stimulate TNF-α production by monocytes”.

Question: And the “TNF-α production by human monocytes” value (human monocytes; HMGB1 together with LPS, 14 hours, FIG. 18)?
Answer: Its value is “active in combination with LPS”.

B3: murine S100A8: murine Alarmin S100A8 (protein, UniProt P27005 2-89, looked up)
Protein S100-A8: PSELEKALSNLIDVYHNYSNIQGNHHALYKNDFKKMVTTECPQFVQNINIENLFRELDINSDNAINFEEFLAMVIKVGVASHKDSHKE
Question: Which “receptor/signalling dependence of TNF-α production” value (murine bone marrow cells) does the source give for B3 here?
Answer: The value was “predominantly binds to TLR-4 and that the intracellular signalling leading to TNF-α production by monocytes is entirely dependent on adaptor protein MyD88”.
